# Results published in US9981918B2, “Kynurenine-3-monooxygenase inhibitors, pharmaceutical compositions, and methods of use thereof” (CHDI Foundation, Inc., priority 2011, dated 2018).
# System: KMO
# Test: KMO inhibition: L-Kynurenine hydroxylation to 3-Hydroxy-Kynurenine monitored by LC/MS
# Format: biochemical
# Conditions: compound at 10 uM; footnote: some portion of activity of amides may be due to contribution of acid precursor
# Method: A generalized procedure for monitoring L-Kynurenine (KYN) hydroxylation to form product 3-Hydroxy-Kynurenine (30H-KYN) by LC/MS is described below. Product is quantified by multiple reaction monitoring using MS.
# A method of monitoring L-Kynurenine (KYN) hydroxylation to form product 3-Hydroxy-Kynurenine (30H-KYN) by LC/MS is described below. Product is quantified by multiple reaction monitoring.
# • Compound: Stock concentrations: 10 mM in 100% DMSO • Enzyme: KMO enzyme prepared at Evotec via mitochondria isolation from CHO-GST HIS KMO cells • Substrate: L-Kynurenine (Sigma: Cat# K3750) • [stock concentration: 10 mM in 100 mM potassium phosphate buffer, pH 7.4]
# A method of monitoring L-Kynurenine (KYN) hydroxylation to form 3-Hydroxy-Kynurenine (30H-KYN) by LC/MS is described. Product is quantified by multiple reaction monitoring (MRM method).
row,Compound,% Inhibition at 10 uM* [%]
1,"O=C(O)c1cc(-c2ccc3c(c2)OCO3)ncn1 [6-(2H-1,3-benzodioxol-5-yl)pyrimidine-4-carboxylic acid]",101
2,O=S(=O)(Nc1cc(-c2ccc(OC3CC3)c(Cl)c2)ncn1)c1ccccc1F [N-[6-(3-chloro-4-cyclopropoxyphenyl)pyrimidin-4-yl]-2-fluorobenzene-1-sulfonamide],96
3,"O=C(O)c1cc(-c2cc(Cl)c3oc(C4CC4)nc3c2)ncn1 [6-(7-chloro-2-cyclopropyl-1,3-benzoxazol-5-yl)pyrimidine-4-carboxylic acid]",100
4,"O=C(OC[C@H]1OC(O)[C@H](O)[C@@H](O)[C@@H]1O)c1cc(-c2ccc(OC3CC3)c(Cl)c2)ncn1 (stereo partly drawn) [[(2R,3S,4S,5R)-3,4,5,6-tetrahydroxyoxan-2-yl]methyl 6-(3-chloro-4-cyclopropoxyphenyl)pyrimidine-4-carboxylate]",102
5,O=C(O)c1cc(-c2cc(Cl)c3c(c2)CCCO3)ncn1 [6-(8-Chloro-chroman-6-yl)-pyrimidine-4-carboxylic acid],100
6,Cc1nc(C(=O)O)cc(-c2ccc(OC(C)C)c(Cl)c2)n1 [6-(3-Chloro-4-isopropoxy-phenyl)-2-methyl-pyrimidine-4-carboxylic acid],70
7,"Cc1nc2c(Cl)cc(-c3cc(C(=O)O)ncn3)cc2o1 [6-(4-chloro-2-methyl-1,3-benzoxazol-6-yl)pyrimidine-4-carboxylic acid]",102
8,O=C(O)c1cc(-c2ccc(C(O)C3CC3)c(Cl)c2)ncn1 (stereo not drawn) [6-{3-chloro-4-[cyclopropyl(hydroxy)methyl]phenyl}pyrimidine-4-carboxylic acid],90
9,"CC(Oc1ccc(-c2cc(C(=O)O)ncn2)cc1Cl)C(F)(F)F (stereo not drawn) [6-[3-Chloro-4-(2,2,2-trifluoro-1-methyl-ethoxy)-phenyl]-pyrimidine-4-carboxylic acid]",94
10,CC(C)c1ccc(-c2cc(C(=O)O)ncn2)cc1F [6-(3-Fluoro-4-isopropyl-phenyl)-pyrimidine-4-carboxylic acid],85
11,CN(c1ccc(-c2cc(C(=O)O)ncn2)cc1Cl)C1CC1 [6-{3-chloro-4-[cyclopropyl(methyl)amino]phenyl}pyrimidine-4-carboxylic acid],96
12,O=S(=O)(Nc1cc(-c2ccc(OC3CC3)c(Cl)c2)ncn1)c1ccccc1 [N-[6-(3-chloro-4-cyclopropoxyphenyl)pyrimidin-4-yl]benzenesulfonamide],73
13,O=S(=O)(Nc1cc(-c2ccc(OC3CC3)c(Cl)c2)ncn1)c1ccc(OC(F)(F)F)cc1 [N-[6-(3-chloro-4-cyclopropoxyphenyl)pyrimidin-4-yl]-4-(trifluoromethoxy)benzene-1-sulfonamide],88
14,"Cc1nc2cc(-c3cc(C(=O)O)ncn3)cc(Cl)c2o1 [6-(7-chloro-2-methyl-1,3-benzoxazol-5-yl)pyrimidine-4-carboxylic acid]",102
15,CS(=O)(=O)c1ccc(-c2cc(C(=O)O)ncn2)cc1Cl [6-[3-chloro-4-(methylsulfonyl)phenyl]pyrimidine-4-carboxylic acid],100
16,CC(C)Oc1ccc(-c2ccnc(C(=O)O)c2)cc1Cl [4-(3-Chloro-4-isopropoxy-phenyl)-pyridine-2-carboxylic acid],80
17,Cc1c(C(=O)O)ncnc1-c1ccc(OC2CC2)c(Cl)c1 [6-(3-chloro-4-cyclopropoxyphenyl)-5-methylpyrimidine-4-carboxylate],100
18,CCC(C)Oc1ccc(-c2cc(C(=O)O)ncn2)cc1Cl (stereo in doubt) [6-(4-(R)-sec-Butoxy-3-chloro-phenyl)-pyrimidine-4-carboxylic acid],100
